Patent US20050026958A1, “Methods of therapeutic treatment using amounts of retinoid components” (Allergan, Inc., priority 2003, published 2005)

Tests used:
sebum secretion [1] = details: published reports (Geiger); cited from earlier work
RXR retinoid receptors = details: cited from earlier work
patients = assay: Two placebo-controlled 24-week safety studies of oral tazarotene plus 16- to 24-week dose-response evaluations (Example 3); format: in vivo, human; details: 4.5 mg orally once daily vs placebo
Protocol: Two multicenter, double-blind, randomized, placebo-controlled 24-week studies of identical design are conducted to evaluate the safety of oral tazarotene. In addition, 16- to 24-week dose-response evaluations are performed.
In the two safety trials, the incidence of adverse side effects with a 4.5 mg dose administered orally once daily is compared to the incidence of the same side effects with a placebo. […] The majority of these were mild in severity and typical of adverse effects associated with oral retinoids.

sebum secretion [2] = assay: Sebum output by Sebutape patches in the Example 7 study; format: in vivo, human; details: oral tazarotene 0.75 to 6 mg once daily, maximum of 86 patients
Protocol: (§1) Sebum output is assessed every 4 weeks at selected centers using the Sebutape® patches, sold by Cuderm Corporation. Urinalysis, chemistry, and hematology values are monitored. Bone formation and resorption assessments (serum bone alkaline phosphatase and serum amino terminal telopeptides, respectively) at selected centers are monitored.

[3] = tested on: patients with severe nodulocystic acne; assay: Multicenter double-blind randomized placebo-controlled study of oral tazarotene in severe nodulocystic acne (Example 7); format: in vivo, human
Source text: A multicenter, double-blind, randomized, placebo-controlled parallel-group study is undertaken to determine the efficacy of orally administered tazarotene in treating severe nodulocystic acne.
In addition, washout periods for other medications for this study are: 1 week for vitamin A supplements >5000 IU; 2 weeks for topical anti-acne medications (e.g., retinoids, azelaic acid, benzoyl peroxide); 2 weeks for topical or systemic antibiotic therapy that may alter the course of acne; and 6 months for systemic retinoids.
Patients are randomized to receive placebo or oral tazarotene (0.75, 1.5, 3, or 6 mg), in a 1:1:1:1:1 ratio once daily for 24 weeks. After this, the patients are followed without treatment for an additional 12 weeks. Patients discontinuing from the treatment period due to adverse effects or lack of efficacy are eligible for entry into the post-treatment phase.
In the study, overall acne severity is rated as: none (no inflammatory acne lesions); mild (few to several papules or pustules, no nodulocystic lesions); moderate (several to many papules or pustules, few to several nodulocystic lesions); and severe (numerous or extensive papules or pustules, many, for example, at least about 5 or at least about 10, nodulocystic lesions).
Treatment success is defined as at least moderate (about 50%) improvement on the following 7-point global response scale: • 0=completely cleared • 1=almost cleared (about 90% improvement) • 2=marked response (about 75% improvement) • 3=moderate response (about 50% improvement) • 4=slight response (about 25% improvement) • 5=condition unchanged • 6=condition worsened
In this study, facial nodulocystic lesion count includes lesions greater than 5 mm in size. Facial papular/pustular lesion count includes lesions less than or equal to 5 mm in size. Facial non-inflammatory lesion count includes open and closed comedones.
as §1
Bone mineral density of spine and proximal femur at selected centers is monitored. Ligament calcification or osteophyte formation (lateral X-ray of the cervical and thoracic spine, and ankle calcaneous) is monitored. Epiphyseal growth plate closure (internal oblique X-ray of the ankle in patients less than or equal to 21 years old) is monitored.

patients (acne) = assay: Adverse event monitoring in studies of orally administered tazarotene for acne (Table 2); format: in vivo, human; details: oral tazarotene for acne, combined Studies 1 and 2 (N = 223)
Protocol: Studies are conducted on orally administered tazarotene for the treatment of acne. Adverse events (side effects) are monitored.

[4] = tested on: patients having nodulocystic acne; assay: Two placebo-controlled dose-ranging safety studies of oral tazarotene in nodulocystic acne (Example 4); format: in vivo, human; details: for joint disorder during treatment period: placebo 0%; for arthralgia during treatment period: placebo 6%; for myalgia during treatment period: placebo 9%; for asthenia during treatment period: placebo 13%; for dry skin during treatment period: placebo 19%; for headache during treatment period: placebo 28%; for cheilitis during treatment period: placebo 31%; for emotional lability (all cases mild): placebo 4%
Protocol: Two placebo-controlled dose-ranging studies are conducted to evaluate the safety of oral tazarotene in patients having nodulocystic acne. In the first study, patients receive orally administered tazarotene at daily doses of 0.4 mg to 2.8 mg in 96 (71+25) patients (12 weeks treatment plus 12 weeks post-treatment). In the second study, daily doses of 0.75 mg to 6 mg tazarotene are administered to 181 patients (24 weeks treatment plus 12 weeks post-treatment).

patients (psoriasis) = assay: Adverse event monitoring in Phase 3 studies of orally administered tazarotene for psoriasis (Table 1); format: in vivo, human; details: Taz 4.5 mg, combined Studies 1 and 2 (N = 348)
Protocol: A series of Phase 3 studies are conducted on orally administered tazarotene for the treatment of psoriasis. Adverse events (side effects) are monitored. In addition, published data for acitretin's side effects are also considered.

[5] = Food effect (high-fat meal vs fast) on pharmacokinetics of tazarotenic acid after 6.3 mg oral tazarotene; format: in vivo, human; details: healthy subjects
[6] = oral tazarotene 0.4 to 6 mg daily

With CC1=C(/C=C/C(C)=C/C=C/C(C)=C\C(=O)O)C(C)(C)CCC1 [Isotretinoin, isotretinoin] as the compound, how does the “inhibitory effect on the rate of sebum secretion” value (sebum secretion [1]) read?
The value was “about 90%”.

With CC1(C)CC[S+]([O-])c2ccc(C#Cc3ccc(C(=O)O)cn3)cc21 (centres unmarked) [sulfoxide derivative] as the compound, how does the “activation of RXR retinoid receptors” value (RXR retinoid receptors) read?
The value was “does not activate”.

With CCOC(=O)c1ccc(C#Cc2ccc3c(c2)C(C)(C)CCS3)nc1 [tazarotene] as the compound, how does the “incidence of ocular, auditory, or thyroid problems” value (patients) read?
The value was “no statistically significant between-group differences”.

What about the “effect on sebum secretion relative to placebo (Sebutape method)” value (sebum secretion [2]) of the same compound?
Its value is “does not substantially reduce sebum secretion relative to placebo”.

And the “patients withdrawing due to adverse events in treatment period” value (from here on “patients withdrawing due”) ([3]; 0.75 mg group (2/35), placebo 0%)?
The value was 6%.

And the “patients withdrawing due” value ([3]; 1.5 mg group (0/37))?
The value was 0%.

And the “incidence of treatment success (≧50% global improvement) vs placebo” value ([3]; 3 mg and 6 mg, week 24 and throughout post-treatment phase (p≦0.05))?
Its value is “significantly higher incidence of treatment success”.

And the “patients withdrawing due” value ([3]; 3 mg group (2/37))?
The value was 5%.

What about the “patients withdrawing due” value ([3]; 6 mg group (1/36)) of the same compound?
The value was 3%.

And the “bone formation and resorption (serum bone alkaline phosphatase, serum amino terminal telopeptides)” value ([3]; all treatment groups)?
Its value is “do not appear to be altered”.

What about the “changes in urinalysis, chemistry, or hematology measures (incl. liver function tests, triglycerides, total cholesterol, HDL cholesterol)” value ([3]; all treatment groups) of the same compound?
Its value is “None of the treatment groups show any consistent clinically significant changes”.

What about the “ligament calcification, osteophyte formation, or changes in bone density” value ([3]; all treatment groups) of the same compound?
Its value is “None of the treatment groups show any clinically significant”.

What about the Conjunctivitis (patients (acne)) of the same compound?
The Conjunctivitis was 0 (0.0) number (%) of patients.

What about the Irritation of eyes (patients (acne)) of the same compound?
The Irritation of eyes was 0 (0.0) number (%) of patients.

And the “joint disorder during treatment period” value ([4]; 2.8 mg, n=11)?
Its value is 27%.

What about the “arthralgia during treatment period” value ([4]; 2.8 mg, n=11) of the same compound?
The value was 9%.

What about the “myalgia during treatment period” value ([4]; 2.8 mg, n=11) of the same compound?
The value was 0%.

What about the “asthenia during treatment period” value ([4]; 2.8 mg, n=11) of the same compound?
Its value is 0%.

What about the “dry skin during treatment period” value ([4]; 2.8 mg, n=11) of the same compound?
Its value is 18%.

What about the “headache during treatment period” value ([4]; 2.8 mg, n=11) of the same compound?
The value was 9%.

And the “cheilitis during treatment period” value ([4]; 2.8 mg, n=11)?
The value was 64%.

And the “emotional lability (all cases mild)” value ([4]; 3 mg group (1 patient))?
Its value is 3%.

What about the depression ([4]; 3 mg group (3 patients: 2 mild, 1 severe), placebo 2%) of the same compound?
The depression was 8%.

And the “joint disorder during treatment period” value ([4]; 3 mg, n=37)?
The value was 14%.

What about the “arthralgia during treatment period” value ([4]; 3 mg, n=37) of the same compound?
The value was 8%.

What about the “myalgia during treatment period” value ([4]; 3 mg, n=37) of the same compound?
Its value is 16%.

And the “asthenia during treatment period” value ([4]; 3 mg, n=37)?
The value was 19%.

And the “dry skin during treatment period” value ([4]; 3 mg, n=37)?
Its value is 35%.

What about the “headache during treatment period” value ([4]; 3 mg, n=37) of the same compound?
Its value is 19%.

And the “cheilitis during treatment period” value ([4]; 3 mg, n=37)?
The value was 78%.

And the “emotional lability (all cases mild)” value ([4]; 6 mg group (5 patients))?
The value was 14%.

And the “joint disorder during treatment period” value ([4]; 6 mg, n=36)?
The value was 19%.

What about the “arthralgia during treatment period” value ([4]; 6 mg, n=36) of the same compound?
The value was 28%.

What about the “myalgia during treatment period” value ([4]; 6 mg, n=36) of the same compound?
The value was 25%.

What about the “asthenia during treatment period” value ([4]; 6 mg, n=36) of the same compound?
Its value is 19%.

And the “dry skin during treatment period” value ([4]; 6 mg, n=36)?
Its value is 50%.

And the “headache during treatment period” value ([4]; 6 mg, n=36)?
Its value is 36%.

And the “cheilitis during treatment period” value ([4]; 6 mg, n=36)?
Its value is 94%.

What about the severe dry skin ([4]; all groups) of the same compound?
The severe dry skin was “No patient has severe dry skin”.

And the “changes in urinalysis, chemistry, or hematology measures (incl. liver function tests, triglycerides, total cholesterol, HDL cholesterol)” value [4, 6]?
The value was “no consistent dose-related clinically significant changes”.

What about the “ligament calcification, osteophyte formation, changes in serum bone alkaline phosphatase, serum amino terminal telopeptides, bone density” value [4, 6] of the same compound?
The value was “not associated with any clinically significant”.

And the Atrophy of skin (patients (psoriasis))?
The Atrophy of skin was 0 (0.0) number (%) of patients.

What about the Hyperesthesia (patients (psoriasis)) of the same compound?
Its Hyperesthesia is 0 (0.0) number (%) of patients.

What about the Paresthesia (patients (psoriasis)) of the same compound?
The Paresthesia was 7 (2.0) number (%) of patients.

What does the source list for CC1(C)CCSc2ccc(C#Cc3ccc(C(=O)O)cn3)cc21 [tazarotenic acid]?
activation of RXR retinoid receptors (RXR retinoid receptors): does not activate; effect of high-fat meal on bioavailability or pharmacokinetics of tazarotenic acid ([5]; 6.3 mg oral tazarotene, single and multiple dose): does not substantially affect; average ratio of Cmax values (test/reference) ([5]; Day 0, 6.3 mg oral tazarotene after high fat breakfast vs 8-10 hour fast): 1.00
